How the values were obtained:
[1] = 101.33 kPa, Liquid, Pycnometric method
[2] = Boiling temperature at pressure P; details: Liquid, Ebulliometric method (Recirculating still)
[3] = molar heat capacity at saturation pressure; details: Liquid, Vacuum adiabatic calorimetry

CC(C)CCOC(=O)C(C)O (configuration not stated) [isopentyl 2-hydroxypropanoate]
Details | Boiling temperature at pressure P [°C] | mass density [kg/m3] | molar heat capacity [J/K/mol]
[1], 288.15 K | – | 976 | –
[1], 293.65 K | – | 973.5 | –
[1], 298.15 K | – | 969.5 | –
[1], 303.15 K | – | 965 | –
[1], 308.15 K | – | 960.6 | –
[1], 315.65 K | – | 954.9 | –
[1], 320.15 K | – | 950 | –
[1], 326.15 K | – | 945.3 | –
[1], 331.65 K | – | 939.8 | –
[1], 336.15 K | – | 937.8 | –
[1], 341.45 K | – | 931.1 | –
[1], 346.15 K | – | 928 | –
[1], 350.95 K | – | 922.7 | –
[1], 355.65 K | – | 917 | –
[1], 361.65 K | – | 913.2 | –
[1], 367.15 K | – | 908 | –
[1], 373.15 K | – | 903 | –
[1], 378.45 K | – | 898.3 | –
[1], 383.45 K | – | 893 | –
[1], 390.65 K | – | 887.5 | –
[1], 397.15 K | – | 883.1 | –
[1], 404.35 K | – | 876.4 | –
[1], 410.85 K | – | 869.6 | –
[1], 417.05 K | – | 864.7 | –
[1], 420.45 K | – | 861 | –
[1], 424.75 K | – | 854.7 | –
[1], 428.15 K | – | 854.2 | –
[1], 434.25 K | – | 848.9 | –
[1], 441.75 K | – | 842.2 | –
[1], 448.55 K | – | 836 | –
[1], 453.15 K | – | 832 | –
[2], 4.5 kPa | 101.44 | – | –
[2], 8.6 kPa | 118.64 | – | –
[2], 13.8 kPa | 131.41 | – | –
[2], 18.4 kPa | 139.2 | – | –
[2], 22.8 kPa | 146.61 | – | –
[2], 27.9 kPa | 153.00 | – | –
[2], 33.2 kPa | 158.40 | – | –
[2], 38.6 kPa | 163.80 | – | –
[2], 42.9 kPa | 168.23 | – | –
[2], 48.2 kPa | 171.66 | – | –
[2], 52.3 kPa | 174.60 | – | –
[2], 57.6 kPa | 178.1 | – | –
[2], 62.3 kPa | 182.00 | – | –
[2], 69.2 kPa | 186.00 | – | –
[2], 72.7 kPa | 188.32 | – | –
[2], 77 kPa | 190.7 | – | –
[2], 82 kPa | 192.98 | – | –
[2], 87.2 kPa | 195.31 | – | –
[2], 91.4 kPa | 197.64 | – | –
[2], 95.7 kPa | 199.20 | – | –
[2], 100.7 kPa | 201.00 | – | –
[2], 110.3 kPa | 205.41 | – | –
[3], 288.15 K | – | – | 360.71
[3], 293.65 K | – | – | 362.52
[3], 298.15 K | – | – | 364.02
[3], 303.55 K | – | – | 365.85
[3], 308.95 K | – | – | 367.71
[3], 313.65 K | – | – | 369.34
[3], 318.45 K | – | – | 371.04
[3], 323.65 K | – | – | 372.9
[3], 328.25 K | – | – | 374.56
[3], 333.85 K | – | – | 376.6
[3], 338.75 K | – | – | 378.4
[3], 343.05 K | – | – | 380
[3], 348.55 K | – | – | 382.06
[3], 353.15 K | – | – | 383.8
[3], 358.45 K | – | – | 385.81
[3], 363.35 K | – | – | 387.69
[3], 368.05 K | – | – | 389.51
[3], 373.75 K | – | – | 391.72
[3], 378.85 K | – | – | 393.72
[3], 383.35 K | – | – | 395.5
[3], 388.65 K | – | – | 397.6
[3], 393.25 K | – | – | 399.44
[3], 398.45 K | – | – | 401.54
[3], 403.15 K | – | – | 403.44
[3], 408.65 K | – | – | 405.69
[3], 413.15 K | – | – | 407.54
[3], 418.85 K | – | – | 409.91
[3], 423.95 K | – | – | 412.04
[3], 428.45 K | – | – | 413.94
[3], 433.15 K | – | – | 415.95
[3], 438.55 K | – | – | 418.27
[3], 443.65 K | – | – | 420.49
[3], 448.15 K | – | – | 422.47
[3], 453.65 K | – | – | 424.92

Reference: the NIST ThermoML archive (doi:10.1021/acs.jced.9b00209)
